Where two headings read alike, the source gives them in different places.
Experiments:
[1] = Solubility in water (solubility classes of screening compounds); format: physicochemical
P. aerug. = experiment: Effectiveness towards P. aerug. (cystic fibrosis application, IC50 % wt/vol); format: cell-based, Pseudomonas aeruginosa
[2] = system: Dengue 2 (DENV-2 strain NG-2); experiment: microbe, parasite or virus in culture; format: cell-based, Dengue virus
[3] = system: MRSA Staphylococcus aureus; experiment: Anti-adhesion assay for MRSA Staphylococcus aureus; format: cell-based; details: for IC50: read-out: IC50 anti-adhesion MRSA Staphylococcus aureus; for ICMAX (μM), IC100: maximal inhibition given as IC100
S. aureus = experiment: Effectiveness towards S. aureus (IC50 % wt/vol); format: cell-based, Staphylococcus aureus
Colletotrichum acutatum = experiment: Petri dish assay for activity against Colletotrichum acutatum (spore adhesion to polystyrene)
Dengue virus = experiment: Direct binding assay (DART TOF-MS) to Dengue virus; details: FIG. 6
Excerpt: The virus particles were collected and fixed in 100% (USP) ethanol prior to DART TOF-MS analysis. The closed end of a borosilicate glass capillary tube was immersed in the virion solution and passed through the DART He plasma to obtain mass spectra of virion surface-bound chemistries. […] The same conditions were used to assess the binding of composition here to bacterial species.

Staphylococcus areus = experiment: Direct binding assay (DART TOF-MS) to Staphylococcus aureus; details: FIG. 7

CNC(=O)C(Cc1ccc(OS(C)(=O)=O)cc1)NC(=O)COCC(=O)Nc1cccc(OS(C)(=O)=O)c1 (stereo not shown) [Compound A02]
Solubility in water [1]: insoluble in water

O=C(c1ccc(O)cc1)N1CCCN(C(=O)c2ccc3cc(O)ccc3c2)CC1 [VI]
IC50 (% wt/vol), pathogen P. aerug. (P. aerug.): <0.005 % wt/vol | IC50 ([2]; Dengue virus, DENV2, LLC-MK2, read-out: IC50 Dengue 2, anti-infection (adhesion)): 114 µM | IC50 ([3]; Staphylococcus aureus, MRSA): 2.5 µM | ICMAX (μM), IC100 ([3]; value is the concentration): IC100 - 10 μM | IC50 (% wt/vol), pathogen S. aure. (S. aureus): <0.017 % wt/vol | IC50 (% wt/vol), pathogen C. acut. (Colletotrichum acutatum): <0.005 % wt/vol

CN(CCCNC(=O)c1ccc(O)cc1)CCCNC(=O)c1ccc(O)cc1 [IV]
IC50 ([3]; Staphylococcus aureus, MRSA): 1.5 µM | IC90 ([3]; Staphylococcus aureus, MRSA, read-out: ICMAX (μM), IC90): 10 µM

CNC(=O)C(Cc1ccc(OS(=O)(=O)C(F)(F)F)cc1)NC(=O)COCC(=O)Nc1cccc(OS(=O)(=O)C(F)(F)F)c1 (stereo not shown) [Compound B02]
Solubility in water [1]: insoluble in water

CCN(CCOC(=O)/C=C/c1ccc(O)cc1)Cc1cc(Cl)ccc1O [Compound I]
IC50 (% wt/vol), pathogen P. aerug. (P. aerug.): 0.001 % wt/vol | Dengue infection when compound is bound to virus ([2]; FIG. 6, virions from direct binding assay): inhibited | Adhesion of Staphylococcus areus when compound is bound ([3]; FIG. 7): blocks adhesion | ICMAX (μM), IC70 ([3]; maximal inhibition printed as IC70, value is the concentration): IC70 - 120 μM | IC50 (% wt/vol), pathogen C. acut. (Colletotrichum acutatum): 0.004 % wt/vol | Direct binding to Dengue virus (DART-MS peak) (Dengue virus): direct binding | Direct binding to Staphylococcus areus (DART-MS peak) (Staphylococcus areus): binds to the bacteria

CN(CCCNC(=O)c1ccc(O)cc1)CCCNC(=O)c1ccc2cc(O)ccc2c1 [III]
IC50 (% wt/vol), pathogen P. aerug. (P. aerug.): 0.001 % wt/vol | IC50 ([3]; Staphylococcus aureus, MRSA): 7.1 µM | ICMAX (μM), IC100 ([3]; value is the concentration): IC100 - 100 μM | IC50 (% wt/vol), pathogen S. aure. (S. aureus): <0.017 % wt/vol | IC50 (% wt/vol), pathogen C. acut. (Colletotrichum acutatum): <0.005 % wt/vol

O=C(O)/C=C/c1ccc(OS(=O)(=O)O)cc1 [Zosteric Acid, reference compound]
IC50 ([2]; from graph of % inhibition versus concentration, read-out: IC50 Dengue 2, anti-infection (adhesion)): 1190 µM | ICMAX (μM), IC100 ([3]; value is the concentration): IC100 - 90 μM | IC50 [3]: 24.8 µM

— US20120101087A1, “Generation of Combinatorial Synthetic Libraries and Screening for Novel Proadhesins and Nonadhesins” (priority 2007, published 2012)
